The values that follow come from patent publication US12338443B2, “Photoactivatable Tet expression control system” (JAPAN SCIENCE AND TECHNOLOGY AGENCY, priority 2018, dated 2025).

Assay [1] relates to pTREtight-Ub-ELuc reporter in HEK293T cells. The assay is described as follows: Relationship between Dox concentration and gene expression induction, near-infrared light (Table 9). Type of assay: cell-based, human. On the set-up: scale not given here. The conditions noted are these: 25 μM BV; for Light: near-infrared light 750 nm. The protocol:
Next, for QT4, QT7 and QT8 constructs, the relationship between Dox concentration and gene expression induction was investigated. Specifically, the relationship was investigated in the same manner as in “Functional screening of PA-Tet-OFF candidate constructs” described above, except that HEK293T cells were seeded in a 24-well plate at 6×10^4 cells/well, the medium was replaced with a medium containing 25 μM BV and having Dox concentration described in Table 9 6 hours after transfection, the cells were irradiated with near-infrared light (750 nm, 4.0 mW/cm^2) for 42 hours by being exposed to light for 30 seconds every 180 seconds, and a 750 nm LED (SMBB750D-1100, manufactured by Ushio Inc.) was used as a light source. All experiments were performed in 3 independent trials (3 batches) to obtain consistent results.

Assay [2] shares this test system. The assay is described as follows: PA-Tet-independent / PA-Tet-ON construct luciferase assay with or without Dox (Example 3, Table 5). Type of assay: cell-based, human. To be noted: first batch; for An initial construct screening result: Light (relative luminescence signal intensity): blue light. The protocol:
For each construct, a plasmid containing the expression cassette was introduced into HEK293T cells together with a pTREtight-Ub-ELuc reporter, thereby obtaining transformed cells. These cells were irradiated with blue light in the absence of Dox or in the presence of Dox, and the light-dependent transcriptional activity of Ub-ELuc was investigated. All experiments were performed in 3 independent trials (3 batches) to obtain consistent results.

The test system is the same in assay [3]. The experiment in a line: Relationship between Dox concentration and induced gene expression level (FIG. 7). Type of assay: cell-based, human. The protocol:
In order to analyze the relationship between the Dox concentration and the induced gene expression level, HEK293T cells were seeded in a 24-well plate at 5 to 9×10^4 cells/well, transfected, and assayed in the same manner as in candidate construct screening. Dox was applied to the cells at concentrations of 0, 1, 7.5, 15, 20, 50, and 100 ng/mL for the PA-Tet-OFF constructs and at concentrations of 0, 10, 15, 20, 30, 35, 40, 50, 75, 100, and 250 ng/mL for the PA-Tet-ON constructs. The cells were irradiated with blue light (7.2 W/m^2; pulsed for 2 seconds every minute) for 3 hours.
In addition, for the PA-Tet-OFF system using the PA-Tet-OFF-T2A construct and the PA-Tet-independent system using the PA-Tet-H100Y construct, the influence of DOx concentration on the PA-Tet-controlled expression efficiency was investigated. Furthermore, for the PA-Tet-ON system using a construct obtained by introducing a V10 mutation into the PA-Tet-OFF-T2A construct (PA-Tet-ON-T2A construct), the influence of Dox concentration on the PA-Tet-controlled expression efficiency was investigated. The data represent mean±standard deviation (n=3) obtained from one experiment. In FIGS. 7(A) and 7(B), “*” means p<0.05 (paired student's t-test).

Assay [4] deals with brain neurons of mouse pups. The assay is described as follows: Light- and Dox-dependent luciferase expression in brain neurons of mouse pups. The conditions noted are these: PA-Tet-OFF system; after single dosing of Dox 0.1 mg/g. Type of assay: in vivo. The method, then: For irradiating the brains of mouse pups with light, anesthetized mice were stimulated through an optical fiber using a blue LED (PLEXBRIGHT®, manufactured by Plexon Inc). After being irradiated with blue light (40 W/m^2; pulsed for 1 second every 15 seconds; continued for 3 hours), the mice were immediately sacrificed, the right brain irradiated with blue light was immediately extracted and lysed, and the luciferase activity thereof was measured.
The mice were treated with Dox. For long-term Dox administration, drinking water containing 1 mg/mL Dox in a 5% by mass sucrose solution was given to the mice. […]
Next, Dox-dependent inhibition of transcriptional activity of the PA-Tet-OFF system in brain neurons was analyzed. […] The luminescence signal intensity induced by the luciferase expression in the brain cells after the light irradiation treatment was measured. Furthermore, for mice treated with Dox (0.1 mg/g (body weight)) 1 hour before the light irradiation treatment, the luminescence signal intensity was also measured in the same manner. In the mouse brain neurons (represented by “Light” in FIG. 25) subjected to the light irradiation treatment, luciferase expression was activated, and the luminescence signal intensity increased. […]
Furthermore, the restoration of light-inducible transcriptional activity after removal of Dox was analyzed in cells transfected with the PA-Tet-OFF system. […]

The next assay concerns the target T1, CIB1 (Arabidopsis thaliana, UniProt Q8GY61).
T1 sequence (Q8GY61 1-335): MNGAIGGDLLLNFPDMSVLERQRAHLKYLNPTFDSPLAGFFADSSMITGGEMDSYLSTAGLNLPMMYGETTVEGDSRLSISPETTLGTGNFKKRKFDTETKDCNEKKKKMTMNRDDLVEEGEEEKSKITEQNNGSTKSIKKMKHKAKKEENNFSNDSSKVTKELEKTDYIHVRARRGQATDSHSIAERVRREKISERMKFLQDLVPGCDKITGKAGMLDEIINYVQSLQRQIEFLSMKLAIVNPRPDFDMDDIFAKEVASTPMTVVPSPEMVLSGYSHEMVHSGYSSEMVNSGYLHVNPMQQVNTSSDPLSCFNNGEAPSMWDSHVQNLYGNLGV
To be noted: after light activation; cited from earlier work.

Turning to “QT4: TetR(I194T)-SPKKK-HMEF-RpBphP1 + 2xNLS-p65AD-HMEF-Q-PAS1 (SEQ ID NO: 26, 27)”, the Light is 17.7 in assay [1] (Dox 0 ng/mL); 20.6 in assay [1] (Dox 0.025 ng/mL); 10.7 in assay [1] (Dox 0.050 ng/mL); 10.1 in assay [1] (Dox 0.100 ng/mL); 2.9 in assay [1] (Dox 0.200 ng/mL); 0.2 in assay [1] (Dox 1.0 ng/mL). Besides, the Dark in assay [1] (Dox 0.100 ng/mL) is listed as 0.5; in assay [1] (Dox 0.200 ng/mL), 0.3; in assay [1] (Dox 0.500 ng/mL) it was 0.2; in assay [1] (Dox 1.0 ng/mL), 0.2.

As for “T86: TetR(I194T)-SPKKK-CIBN no NLS + Cry2 PHR (L348F)-p65 AD-NLSx2 (Element #1 SEQ ID NO: 5, Element #2 SEQ ID NO: 6) [Construct T86]”, the “An initial construct screening result: Light (relative luminescence signal intensity)” value turned out to be 12.3 in assay [2] (Dox 0 ng/mL) and 0.1 in assay [2] (Dox 75 ng/mL). Also, in assay [2] (Dox 75 ng/mL, dark), the “An initial construct screening result: Dark (relative luminescence signal intensity)” value was found to be 0.1.

For `C[C@H]1c2cccc(O)c2C(=O)C2=C(O)[C@]3(O)C(=O)C(C(N)=O)=C(O)[C@@H](N(C)C)[C@@H]3[C@@H](O)[C@@H]21` [Dox, doxycycline], the “extremely low Dox concentration at which the effect brought about by Dox was observed” value in assay [3] (PA-Tet-OFF system) worked out at 1 ng/mL; in assay [3] (PA-Tet-ON system) it was 10 ng/mL. Besides, the “duration of inhibition of light-induced luciferase expression” value in assay [4] was 4 days.

As for “QT7: RpBphP1-TSTR-TetR(I194T) + p65AD-HMEF-Q-PAS1 (SEQ ID NO: 28, 29)”, the Light in assay [1] (Dox 0 ng/mL) is on record as 53.7; in assay [1] (Dox 1.0 ng/mL), 29.9; in assay [1] (Dox 2.0 ng/mL), 34.7; in assay [1] (Dox 3.0 ng/mL) it was 25.0; in assay [1] (Dox 4.0 ng/mL), 17.6; in assay [1] (Dox 5.0 ng/mL), 16.4. The Light in assay [1] (Dox 10.0 ng/mL) was 3.7. Besides, the Dark in assay [1] (Dox 1.0 ng/mL) is on record as 2.9; in assay [1] (Dox 2.0 ng/mL) it was 2.7; in assay [1] (Dox 4.0 ng/mL) it was 1.3; in assay [1] (Dox 5.0 ng/mL), 1.6; in assay [1] (Dox 10.0 ng/mL), 0.3.

As to “QT8: RpBphP1-TSTR-TetR(I194T) + 2xNLS-p65AD-HMEF-Q-PAS1 (SEQ ID NO: 28, 27)”, the Light stood at 152.0 in assay [1] (Dox 0 ng/mL); 143.1 in assay [1] (Dox 1.0 ng/mL); 112.2 in assay [1] (Dox 2.0 ng/mL); 108.7 in assay [1] (Dox 3.0 ng/mL); 86.8 in assay [1] (Dox 4.0 ng/mL); 63.9 in assay [1] (Dox 5.0 ng/mL). In addition, the Light in assay [1] (Dox 10.0 ng/mL) was found to be 7.2. Besides, the Dark in assay [1] (Dox 1.0 ng/mL) was 14.5; in assay [1] (Dox 2.0 ng/mL), 17.1; in assay [1] (Dox 3.0 ng/mL), 16.0; in assay [1] (Dox 4.0 ng/mL) it was 15.1; in assay [1] (Dox 5.0 ng/mL), 15.2; in assay [1] (Dox 10.0 ng/mL), 3.1.

B1: Cry2: Arabidopsis thaliana Cryptochrome 2 photoreceptor binding CIB1 in a blue light-specific manner (protein)
chain: MKMDKKTIVWFRRDLRIEDNPALAAAAHEGSVFPVFIWCPEEEGQFYPGRASRWWMKQSLAHLSQSLKALGSDLTLIKTHNTISAILDCIRVTGATKVVFNHLYDPVSLVRDHTVKEKLVERGISVQSYNGDLLYEPWEIYCEKGKPFTSFNSYWKKCLDMSIESVMLPPPWRLMPITAAAEAIWACSIEELGLENEAEKPSNALLTRAWSPGWSNADKLLNEFIEKQLIDYAKNSKKVVGNSTSLLSPYLHFGEISVRHVFQCARMKQIIWARDKNSEGEESADLFLRGIGLREYSRYICFNFPFTHEQSLLSHLRFFPWDADVDKFKAWRQGRTGYPLVDAGMRELWATGWMHNRIRVIVSSFAVKFLLLPWKWGMKYFWDTLLDADLECDILGWQYISGSIPDGHELDRLDNPALQGAKYDPEGEYIRQWLPELARLPTEWIHHPWDAPLTVLKASGVELGTNYAKPIVDIDTARELLAKAISRTREAQIMIGAAPDEIVADSFEALGANTIKEPGLCPSVSSNDQQVPSAVRYNGSKRVKPEEEEERDMKKSRGFDERELFSTAESSSSSSVFFVSQSCSLASEGKNLEGIQDSSDQITTSLGKNGCK
modifications: Cry2
Turning to B1, the “half-life of spontaneous dissociation from CIB1” value in the assay with CIB1 is recorded as “about 5.5 minutes”.
